From patent publication US20240301409A1, “Chemically Modified Small Activating RNA” (RACTIGEN THERAPEUTICS, priority 2021, published 2024)
Entries after “also recorded” stand apart in the source; their conditions may differ. Where two headings read alike, the source gives them in different places. Oligonucleotides are written 5' to 3', each unit as a sugar letter and its base; * is a phosphorothioate linkage, no mark a phosphodiester; rarer units and linkages stand in square brackets, end groups in braces. Plain capitals give the bases only. d = 2'-deoxy (DNA); m = 2'-O-methyl; r = 2'-OH (RNA); f = 2'-fluoro

Assays:
[1] = system: p21 gene; experiment: p21 mRNA expression by RT-qPCR in Ku-7-LG cells; assay type: cell-based, human; details: 10 nM, 72 hours, compared with unmodified Rag1-40 unless worded otherwise
Experimental: (§1) Ku-7-LG and T24 cells were transfected with the indicated saRNA at a final concentration of 10 nM for 3 days. After transfection, the RNA was extracted with the Qiagen RNeasy kit. After reverse transcription, the ABI 7500 fast real-time PCR system was used for qPCR amplification. The GAPDH gene was amplified as an internal reference. […] Dashed line indicates duplex Rag1-40 with no chemical modification in comparison, and the values above the line indicate stronger activity. The control was blank transfection without oligonucleotide. dsCon2 is transfected with a double-stranded scramble RNA. The value of the ordinate represents the mean±SD of 2 repeated treatments.
(§2) The control and dsCon2 were blank transfection and scramble dsRNA transfection, respectively. The values in the ordinate represent the mean±SD of 2 repeated treatments.
(§3) Human bladder cancer cells Ku-7-LG (ATCC), J82 (ATCC) and T24 (ATCC) were cultured in McCoy medium (Gibco) comprising 10% calf serum (Sigma-Aldrich) and 1% penicillin/Streptomycin (Gibco). Cells were cultured at 37° C. under 5% CO2. Ku-7-LG, J82 and T24 cells were plated into 12-well plates at 10×10^4 cells per well, transfected with the small RNA at a concentration of 10 nM (unless otherwise specified) for three days, using RNAiMax (Invitrogen, Carlsbad, CA) according to the manufacturer's instructions. Two replicate wells were set for each treatment.
(§4) After transfection, the medium was discarded and to each well 500 μl cell lysate was added and incubated at room temperature for 5 minutes. RNA was extracted with the Qiagen RNeasy kit, and after reverse transcription, qPCR analysis was performed on the ABI 7500 Fast Real-time PCR system (Applied Biosystems). Each sample was amplified in 3 replicate wells.
(§5) The PCR reaction conditions are: 95° C. for 30 seconds, 95° C. for 5 seconds, 60° C. for 30 seconds, and 40 cycles of amplification. The GAPDH gene was amplified as an internal reference at the same time. p21 was amplified with the p21F1/R1 primer pair, and the specific sequences of the amplification primers are shown in Table 1.
(§6) In order to calculate the expression value (Erel) of p21 (target gene) of a saRNA transfection sample relative to the control treatment, Formula 1 is used to input the Ct values of the target gene and the internal reference gene for calculation.
(§7) wherein, CtTm is the Ct value of the target gene from the control treatment sample; CtTs is the Ct value of the target gene from the saRNA treated sample; CtRm is the Ct value of the internal reference gene from the control treatment sample; and CtRs is the Ct value of the internal reference gene from the saRNA treated sample.
(§8) The main purpose of introducing chemical modifications to regulatory oligonucleotides of a gene is to improve their pharmaceutical properties, including enhancing in vivo stability and mitigating off-target effects (e.g., sequence-dependent targeting of unrelated genes, sequence-dependent or independent immune stimulation), while maintaining their gene regulatory capacity (gene knockdown or activation). To assess the effect of chemical modification on the RNAa activity of saRNA on the p21 gene, 10 nM unmodified (Rag1-40) and modified (Rag1-40-1 to Rag1-40-34) duplexes were transfected into Ku-7-LG and T24 cells, respectively. After 72 hours, the mRNA expression level of p21 was assessed by RT-qPCR. All duplexes induced p21 mRNA expression in all […] at least double that of the control.
(§9) In order to further evaluate the expression level of p21 mRNA after the different durations of treatment by the chemically modified saRNA duplexes, two saRNAs (RAG1-40-31 and RAG1-40-53) were randomly selected from the above chemically modified saRNA duplexes for detection. RAG1-40-31 and RAG1-40-53 were transfected into Ku-7-LG and T24 cells at a final concentration of 10 nM, for 1, 2, 3, 4, 7 and 9 days, respectively. Each treatment was set up in duplicate. […]

[2] = system: p21 gene; experiment: p21 mRNA expression by RT-qPCR in T24 cells; assay type: cell-based, human; details: 10 nM, 72 hours, compared with unmodified Rag1-40 unless worded otherwise
Experimental: as §1, §2, §3, §4, §5, §6, §7, §8, §9

[3] = system: Ku-7-LG cells; experiment: Cellular proliferation assay (CCK8) in Ku-7-LG cells; assay type: cell-based, human; details: 10 nM, 72 hours
Experimental: Ku-7-LG cells were transfected with the indicated saRNA at 10 nM for 3 days. […] The closer the luciferase value is to the control group, the lower the probability of off-target effects of saRNA is. Control and dsCon2 were blank transfection and double-stranded scramble RNA transfection, respectively. The value of the ordinate represents the mean±SD of two repeated treatments.
(§10) After the transfection, the number of viable cells was detected with a CCK8 kit, and plotted as the percentage of the blank control treatment group. […] A transfection sample without oligonucleotide served as a blank control. Non-specific duplex (dsCon) transfected sample served as a negative control. Data are presented as mean±SD of at least two independent experiments. The values below the dashed line indicate stronger growth inhibitory activity compared to duplex Rag1-40 without chemical modification.
as §3
(§11) Cells were plated in a 96-well plate at 2˜4×10^3 cells/well, cultured overnight, and transfected with the oligonucleotide duplexes. Three days after transfection, CCK8 (Dojindo) was used to detect cellular proliferation following manufacturer's instructions. The experimental steps are briefly described as follows: 10 μL of CCK8 solution was added to each well, incubated at 37° C. for 1 hour, and then the absorbance at 450 nm was measured using a microplate reader.
(§12) It is known that p21 induction by saRNA is that a variety of tumor suppressor factors such as p21 protein suppress the proliferation of cancer cells. To evaluate the effect of chemically modified saRNAs on the function of cancer cells, cells (Ku-7-LG and T24) were transfected with 10 nM unmodified and modified saRNAs for 72 hours, and the cellular proliferation was determined by CCK8. […] Furthermore, there was a correlation between RNA activating activity (FIGS. 7A-7B) and suppression of cellular proliferation activity (FIGS. 8A-8B). Strong p21 activators are usually also strong cytostatics.

[4] = system: Rag1-40 target sequence in the 3′ UTR of firefly luciferase, COS-1 cells; experiment: Analysis of off-target effects (pOff-Target dual luciferase reporter in COS-1 cells); details: lysed 48 hours after transfection, luciferase activity
[5] = system: T24 cells; experiment: Cellular proliferation assay (CCK8) in T24 cells, alone and combined with Mitomycin C or valrubicin; assay type: cell-based, human; details: T24 cells, 10 nM, 72 hours, CCK8
Excerpt: as §10
T24 cells were transfected with RAG1-40-31 at concentrations of 0.1, 0.5, 1, 5, 10, 25 and 50 nM for 24 hours, and then Mitomycin C was added at concentrations of 1, 10, 100, 1000 and 10000 nM. The combined treatment was carried out with concentrations in pairs. After treatment, the cellular proliferation was detected by CCK8 kit. FIGS. 16A-16B show the relative proliferation proportion of T24 cells after the combined treatment with chemically modified saRNA RAG1-40-31 and valrubicin. […] Control and DMSO are the blank transfection control and the solvent for dilution control, respectively.
T24 cells were transfected with RAG1-40-31 at concentrations of 0.1, 0.5, 1, 5, 10, 25 and 50 nM for 24 hours, and then valrubicin at concentrations of 1, 10, 100, 1000 and 10000 nM was added. The combined treatment was carried out with concentrations in pairs. After treatment, the cellular proliferation was detected by CCK8 kit.
as §3, §11, §12

[6] = target: T1, RNase A (Bos taurus, UniProt P61823)
T1 sequence (P61823 27-150): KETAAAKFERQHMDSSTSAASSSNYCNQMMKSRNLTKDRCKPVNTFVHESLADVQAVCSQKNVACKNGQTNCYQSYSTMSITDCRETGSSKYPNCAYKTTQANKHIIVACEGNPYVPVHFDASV

[7] = system: Rag1-40 target sequence in the 3′ UTR of firefly luciferase, COS-1 cells

Row | Substance | RNA activation activity (p21 mRNA), in words [1] | RNA activation activity (p21 mRNA), in words [2] | suppression of cellular proliferation, in words [3] | off-target effect compared to unmodified Rag1-40, in words [4] | suppression of cellular proliferation, in words [5] | degradation of duplex at 96 hours [6] | off-target effect compared to unmodified Rag1-40, in words [7]
1 | Rag1-40-34: saRNA duplex: sense CCAACUCAUUCUCCAAGUC (SEQ ID NO 17); antisense UacttggAGAAUGAGUUGGCA (SEQ ID NO 19) (antisense rUdAdCdTdTdGdGrArGrArArUrGrArGrUrUrGrGrCrA; sense: RNA, phosphodiester; further chemistry not fully specified) | attenuated activity; also recorded: weak RNA activating activity | reduced activity; also recorded: attenuated activity | weak cellular proliferation inhibitory activity | mitigated or similar off-target effects | – | – | –
2 | Rag1-40-33: saRNA duplex: sense CCAACUCAUUCUCCAAGUC (SEQ ID NO 17); antisense UactUGGAGAAUGAGUUGGCA (SEQ ID NO 18) (antisense rUdAdCdTrUrGrGrArGrArArUrGrArGrUrUrGrGrCrA; sense: unmodified RNA) | attenuated activity; also recorded: weak RNA activating activity | reduced activity; also recorded: attenuated activity | weak cellular proliferation inhibitory activity | mitigated or similar off-target effects | – | – | –
3 | Rag1-40-11: saRNA duplex: sense fCfCAACUCAUUCUCCAAGfUfC (SEQ ID NO 14); antisense fUmAfCfUfUmGmGmAmGmAmAfUmGmAmGfUfUmGmGfCmA (SEQ ID NO 8) (sense fCfCrArArCrUrCrArUrUrCrUrCrCrArArGfUfC) | – | reduced activity | negatively affects proliferation suppression activity | – | negatively affects proliferation suppression activity | little or no signs of degradation | completely inhibited
4 | Rag1-40-32: saRNA duplex: sense fCfCAACUCAUUCUCCAAG*U*C (SEQ ID NO 16); antisense fUactfUGGAGAAfUGAGfUfUGG*fC*A (SEQ ID NO 13) (sense fCfCrArArCrUrCrArUrUrCrUrCrCrArArG*rU*rC; antisense fUdAdCdTfUrGrGrArGrArAfUrGrArGfUfUrGrG*fC*rA) | attenuated activity; also recorded: weak RNA activating activity | reduced activity; also recorded: attenuated activity | weak cellular proliferation inhibitory activity; also recorded: weakens the activity of the saRNA duplex to suppress cellular proliferation | – | weakens the activity of the saRNA duplex to suppress cellular proliferation | little or no signs of degradation | increased off-target effects
5 | Rag1-40-16: saRNA duplex: sense fCfCAACUCAUUCUCCAAGfUfC (SEQ ID NO 14); antisense fUactfUGGAGAAfUGAGfUfUGG*fC*A (SEQ ID NO 13) (sense CCAACUCAUUCUCCAAGUC; antisense UACTUGGAGAAUGAGUUGGCA; 2'-F, DNA residues, phosphorothioate modifications; modified_base (1)..(19) (1,2,18,19)=2′-fluoro; modified_base (1)..(17) (1,2,9,13,14,17)=2′-fluoro; (1)..(21) (1,5,6,7,8,9,10,11,12,13,14,15,1,61,7,18,19,20, 21)=RNA; (2)..(4) (2,3,4)=DNA; modified_base (16)..(18) (16,17,18)=phosphorothioate (PS) backbone modification) | – | – | weakens the activity of the saRNA duplex to suppress cellular proliferation | – | weakens the activity of the saRNA duplex to suppress cellular proliferation | little or no signs of degradation | increased off-target effects
